Laboratory results as given in patent US6348457B1, “4-[3-benzofuranyl]piperidinyl and 4-[3-benzothienyl]piperidinyl derivatives” (Janssen Pharmaceutica N.V., priority 1922, dated 2002).

Assays:
Female Wistar rats = test: Reserpine Tremor Test; type: in vivo, rat; settings: route sc, dose 2.5 mg/kg, 90 min before testing; reserpine 2 mg/kg iv 60 min before testing; 15-min session; number of rats out of rats tested
Experimental: Female Wistar rats weighing 200-220 g were used. These test animals were food deprived for 24 hours. Said rats were pretreated orally (po) or subcutaneously (sc) with a test compound at 90 minutes before testing. This pretreatment was followed by an intravenous injection of 2 mg/kg reserpine at 60 minutes before testing. Two control groups of 20 rats each were included in the experiment. The first control group consisted of rats that were only treated with a saline solution and the second control group consisted of animals which only received a saline reserpine solution. At the start of the test, the rats were individually placed in specially designed test cages and tremor activity was measured continuously during a 15-min test session. These test cages consisted of a plexiglass chamber. The floor of the test cage consisted of a plexiglass plate which was centered underneath the cage. […] The floor plate rested at its four corners on a rubber point of support. Two pieces of piezo-film were tied up next to each other underneath the middle of the floor plate. Said piezo-films were connected to an amplifier. The test cage was situated in a sound and light attenuating out box, being constantly illuminated and air-ventilated. The piezo-electric response, produced by deformation of the cage floor was amplified by an individual amplifier for each piezo-film separately. […]

In the case of Cc1nc2ccccn2c(=O)c1CCN1CCC(c2coc3cc(F)ccc23)CC1 [Co. No. 1, 3-[2-[4-(6-fluoro-3-benzofuranyl)-1-piperidinyl]ethyl]-2-methyl-4H-pyrido-[1,2-a]pyrimidin-4-one], the “rats showing a tremor activity below 35 counts” value (Female Wistar rats) is reported as 3 and the melting point is reported as 159.8 °C.
